The results in this text go back to patent US7517874B2 (priority 2007, dated 2009).

Read-outs that look alike come from different tables or passages of the source. Some results are limits rather than exact numbers.

One test has as its target T1, rat CB2 receptor (rCB2) (Rattus norvegicus, UniProt Q9QZN9).
T1 sequence (Q9QZN9 1-360): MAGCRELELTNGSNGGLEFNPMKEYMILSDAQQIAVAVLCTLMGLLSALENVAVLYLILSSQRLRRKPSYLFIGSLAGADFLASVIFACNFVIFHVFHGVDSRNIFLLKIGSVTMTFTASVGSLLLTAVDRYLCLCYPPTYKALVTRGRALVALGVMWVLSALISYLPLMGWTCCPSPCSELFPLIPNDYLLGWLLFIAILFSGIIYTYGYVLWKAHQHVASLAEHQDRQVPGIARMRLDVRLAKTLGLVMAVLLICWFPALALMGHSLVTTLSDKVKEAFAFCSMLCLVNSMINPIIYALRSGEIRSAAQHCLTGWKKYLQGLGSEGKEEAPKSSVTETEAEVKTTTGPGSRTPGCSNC
Briefly: cell-based. Format: cell-based. As to conditions: for +/− RCB2: agonist or inverse agonist at rCB2. Summed up:
(§1)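 Readout: LANCE TR-FRET cAMP, back-calculated from a concurrent standard curve and scaled between forskolin-only and forskolin + 1 μM CP55,940 wells. EC50 and intrinsic activity came from four-parameter fits.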

Test [1] deals with human CB1 receptor (hCB1) (Homo sapiens, UniProt P21554). In words: cell-based. Format: cell-based. As to conditions: for +/− HCB1: agonist or inverse agonist at hCB1. The essentials: as §1
Setting [2] is: groups >100 nM-10 μM and >10 μM, cAMP, CHO-K1 rCB2, read-out: EC50 RCB2.
The mark [3] stands for this setting: groups >100 nM-10 μM and >10 μM, cAMP, CHO-K1 hCB1, read-out: EC50 HCB1.

Sequence of human CB1 receptor (hCB1) (P21554 whole entry): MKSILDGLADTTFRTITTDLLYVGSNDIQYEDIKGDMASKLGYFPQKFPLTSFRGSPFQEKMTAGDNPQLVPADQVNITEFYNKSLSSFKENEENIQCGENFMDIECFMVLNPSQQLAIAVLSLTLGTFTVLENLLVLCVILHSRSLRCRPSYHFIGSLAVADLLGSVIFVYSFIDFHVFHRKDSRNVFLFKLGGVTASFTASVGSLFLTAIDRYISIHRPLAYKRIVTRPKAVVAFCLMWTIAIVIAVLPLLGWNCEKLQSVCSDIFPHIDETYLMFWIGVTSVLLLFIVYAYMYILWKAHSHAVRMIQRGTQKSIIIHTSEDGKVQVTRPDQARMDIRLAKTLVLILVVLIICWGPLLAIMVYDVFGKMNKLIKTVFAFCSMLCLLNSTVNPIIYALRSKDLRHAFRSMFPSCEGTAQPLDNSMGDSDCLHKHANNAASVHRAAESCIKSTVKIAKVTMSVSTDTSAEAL

As to `Cc1nnc([C@@H](NC(=O)c2nc(-c3ccccc3)n3c2CN(C)CC3)C(C)(C)C)o1` [Compound 201, (S)-N-(2,2-dimethyl-1-(5-methyl-1,3,4-oxadiazol-2-yl)propyl)-7-methyl-3-phenyl-5,6,7,8-tetrahydroimidazo[1,5-a]pyrazine-1-carboxamide], the “+/− RCB2” value at rat CB2 receptor (rCB2) is recorded as “+”. The molecule further showed an EC50 in test [1] of more than 10000 nM.

On to `CNC(=O)[C@@H](NC(=O)c1nc(-c2ccccc2-c2ccccc2)n2c1CN(C)CCC2)C(C)(C)C` [Compound 413, (S)-3-(biphenyl-2-yl)-N-(3,3-dimethyl-1-(methylamino)-1-oxobutan-2-yl)-8-methyl-6,7,8,9-tetrahydro-5H-imidazo[1,5-a][1,4]diazepine-1-carboxamide], for which the EC50 (at rat CB2 receptor (rCB2); in test [1]) was more than 10000 nM in each case.

Take `CNC(=O)[C@@H](NC(=O)c1nc(-c2ccccc2)n2c1CN(S(=O)(=O)C(C)C)CC2)C(C)(C)C` [Compound 94, (S)-N-(3,3-dimethyl-1-(methylamino)-1-oxobutan-2-yl)-7-(isopropylsulfonyl)-3-phenyl-5,6,7,8-tetrahydroimidazo[1,5-a]pyrazine-1-carboxamide]: on rat CB2 receptor (rCB2), the “+/− RCB2” value was “−”. This molecule also returned a half-maximal effective concentration (EC50) in test [1] of more than 10000 nM.

As for `C[C@H](NC(=O)c1nc(-c2ccccc2)n2c1CN(C)CC2)C(C)(C)C` [Compound 51, (S)-N-(3,3-dimethylbutan-2-yl)-7-methyl-3-phenyl-5,6,7,8-tetrahydroimidazo[1,5-a]pyrazine-1-carboxamide], the half-maximal effective concentration (EC50) (on rat CB2 receptor (rCB2) (setting [2]); in test [1] (setting [3])) was more than 10000 nM throughout.

In the case of `CNC(=O)[C@@H](NC(=O)c1nc(-c2ccccc2)n2c1CN(C)CC2)c1ccccc1` [Compound 207, (S)-7-methyl-N-(2-(methylamino)-2-oxo-1-phenylethyl)-3-phenyl-5,6,7,8-tetrahydroimidazo[1,5-a]pyrazine-1-carboxamide], the “+/− RCB2” value on rat CB2 receptor (rCB2) is recorded as “+”. The same molecule gave an EC50 in test [1] of more than 10000 nM.

Take `CNC(=O)[C@@H](NC(=O)c1nc(-c2cccc(S(C)(=O)=O)c2)n2c1CN(C)CCC2)C(C)(C)C` [Compound 409]: the “+/− RCB2” value on rat CB2 receptor (rCB2) was “−”. This molecule also had an EC50 in test [1] of more than 10000 nM.

Turning to `CNC(=O)[C@@H](NC(=O)c1nc(-c2cc(C(N)=O)ccc2F)n2c1CN(C)CCC2)C(C)(C)C` [Compound 405, (S)-3-(5-carbamoyl-2-fluorophenyl)-N-(3,3-dimethyl-1-(methylamino)-1-oxobutan-2-yl)-8-methyl-6,7,8,9-tetrahydro-5H-imidazo[1,5-a][1,4]diazepine-1-carboxamide], the EC50 (on rat CB2 receptor (rCB2) (setting [2]); in test [1] (setting [3])) was more than 10000 nM each time.

Take `C[C@@H](NC(=O)c1nc(-c2ccccc2)n2c1CN(C(=O)OC(C)(C)C)CC2)C1CCCCC1` [Compound 37, (R)-tert-butyl 1-(1-cyclohexylethylcarbamoyl)-3-phenyl-5,6-dihydroimidazo[1,5-a]pyrazine-7(8H)-carboxylate]: the “+/− RCB2” value at rat CB2 receptor (rCB2) is given as “−”. For the same molecule, the EC50 in test [1] is more than 10000 nM.

For the molecule `CNC(=O)[C@@H](NC(=O)c1nc(-c2cccc(NS(C)(=O)=O)c2)n2c1CN(C)CCC2)C(C)(C)C` [Compound 421, (S)-N-(3,3-dimethyl-1-(methylamino)-1-oxobutan-2-yl)-8-methyl-3-(3-(methylsulfonamido)phenyl)-6,7,8,9-tetrahydro-5H-imidazo[1,5-a][1,4]diazepine-1-carboxamide], the “+/− RCB2” value on rat CB2 receptor (rCB2) was “−”. In test [1], this molecule registered an EC50 of more than 10000 nM.

`CNC(=O)[C@@H](NC(=O)c1nc(-c2cccc(C(=O)N(C)C)c2)n2c1CN(C)CCC2)C(C)(C)C` [Compound 412, (S)-N-(3,3-dimethyl-1-(methylamino)-1-oxobutan-2-yl)-3-(3-(dimethylcarbamoyl)phenyl)-8-methyl-6,7,8,9-tetrahydro-5H-imidazo[1,5-a][1,4]diazepine-1-carboxamide]: the half-maximal effective concentration (EC50) (on rat CB2 receptor (rCB2); in test [1]) was more than 10000 nM throughout.

Turning to `CC(C)(C)[C@@H](CO)NC(=O)c1nc(-c2ccc(Cl)cc2)n2c1CNCC2` [Compound 43, (S)-3-(4-chlorophenyl)-N-(1-hydroxy-3,3-dimethylbutan-2-yl)-5,6,7,8-tetrahydroimidazo[1,5-a]pyrazine-1-carboxamide], the “+/− RCB2” value on rat CB2 receptor (rCB2) is “−”. Further, the concentration giving a half-maximal response (EC50) in test [1] was more than 10000 nM.

Regarding `CC12CCC(C1)C(C)(C)C2NC(=O)c1nc(-c2ccccc2)n2c1CN(CCO)CC2` (stereo not shown) [Compound 143, 7-(2-hydroxyethyl)-3-phenyl-N-(1,3,3-trimethylbicyclo[2.2.1]heptan-2-yl)-5,6,7,8-tetrahydroimidazo[1,5-a]pyrazine-1-carboxamide], the “+/− RCB2” value at rat CB2 receptor (rCB2) is “−”. Also, the concentration giving a half-maximal response (EC50) in test [1] is more than 10000 nM.

As to `CNC(=O)[C@@H](NC(=O)c1nc(-c2ccccc2)n2c1CN(S(C)(=O)=O)CC2)C(C)(C)C` [Compound 92, (S)-N-(3,3-dimethyl-1-(methylamino)-1-oxobutan-2-yl)-7-(methylsulfonyl)-3-phenyl-5,6,7,8-tetrahydroimidazo[1,5-a]pyrazine-1-carboxamide], the “+/− RCB2” value on rat CB2 receptor (rCB2) is “−”. Moreover, the 50% effective concentration (EC50) in test [1] was more than 10000 nM.

Turning to `CNC(=O)[C@@H](NC(=O)c1nc(-c2ccoc2)n2c1CN(C)CCC2)C(C)(C)C` [Compound 440, (S)-N-(3,3-dimethyl-1-(methylamino)-1-oxobutan-2-yl)-3-(furan-3-yl)-8-methyl-6,7,8,9-tetrahydro-5H-imidazo[1,5-a][1,4]diazepine-1-carboxamide], the “+/− RCB2” value at rat CB2 receptor (rCB2) was “+”. In test [1], the EC50 was more than 10000 nM.

For the molecule `CNC(=O)[C@@H](NC(=O)c1nc(-c2ccccc2)n2c1CN(Cc1ccccc1)CC2)C(C)(C)C` [Compound 61, (S)-7-benzyl-N-(3,3-dimethyl-1-(methylamino)-1-oxobutan-2-yl)-3-phenyl-5,6,7,8-tetrahydroimidazo[1,5-a]pyrazine-1-carboxamide], the EC50 (at rat CB2 receptor (rCB2); in test [1]) was more than 10000 nM throughout.

With `CC(C)(C)c1noc([C@@H](NC(=O)c2nc(-c3ccccc3)n3c2CN(C2CC2)CC3)C(C)(C)C)n1` [Compound 284, (S)-N-(1-(3-tert-butyl-1,2,4-oxadiazol-5-yl)-2,2-dimethylpropyl)-7-cyclopropyl-3-phenyl-5,6,7,8-tetrahydroimidazo[1,5-a]pyrazine-1-carboxamide], the “+/− RCB2” value at rat CB2 receptor (rCB2) is given as “−”. For the same molecule, the concentration giving a half-maximal response (EC50) in test [1] was more than 10000 nM.

`CNC(=O)[C@@H](NC(=O)c1nc(-c2ccc(F)c(C)c2)n2c1CNCC2)C(C)(C)C` [Compound 7, (S)-N-(3,3-dimethyl-1-(methylamino)-1-oxobutan-2-yl)-3-(4-fluoro-3-methylphenyl)-5,6,7,8-tetrahydroimidazo[1,5-a]pyrazine-1-carboxamide]: the “+/− RCB2” value at rat CB2 receptor (rCB2) is “−”. In test [1], this molecule gave a 50% effective concentration (EC50) of more than 10000 nM.

Consider `CNC(=O)[C@@H](NC(=O)c1nc(C2CC2)n2c1CN(C)CC2)C(C)(C)C` [Compound 269, (S)-3-cyclopropyl-N-(3,3-dimethyl-1-(methylamino)-1-oxobutan-2-yl)-7-methyl-5,6,7,8-tetrahydroimidazo[1,5-a]pyrazine-1-carboxamide], for which, at rat CB2 receptor (rCB2), the “+/− RCB2” value was “+”. Further, the “+/− HCB1” value in test [1] is on record as “+”.

Take `CNC(=O)[C@@H](NC(=O)c1nc(-c2ccccc2)n2c1CN(C(=O)OC(C)(C)C)CCC2)C(C)(C)C` [Compound 312, (S)-tert-butyl 1-(3,3-dimethyl-1-(methylamino)-1-oxobutan-2-ylcarbamoyl)-3-phenyl-6,7-dihydro-5H-imidazo[1,5-a][1,4]diazepine-8(9H)-carboxylate]: the “+/− RCB2” value on rat CB2 receptor (rCB2) is reported as “−”. This molecule also showed an EC50 in test [1] of more than 10000 nM.

Regarding `CNC(=O)[C@@H](NC(=O)c1nc(-c2ccc(C)c(Cl)c2)n2c1CN(C)CCC2)C(C)(C)C` [Compound 334, (S)-3-(3-chloro-4-methylphenyl)-N-(3,3-dimethyl-1-(methylamino)-1-oxobutan-2-yl)-8-methyl-6,7,8,9-tetrahydro-5H-imidazo[1,5-a][1,4]diazepine-1-carboxamide], the EC50 (at rat CB2 receptor (rCB2); in test [1]) was more than 10000 nM in each case.

On to `COCCNC(=O)[C@@H](NC(=O)c1nc(-c2ccccc2)n2c1CN(C)CCC2)C(C)(C)C` [Compound 475, (S)-N-(1-(2-methoxyethylamino)-3,3-dimethyl-1-oxobutan-2-yl)-8-methyl-3-phenyl-6,7,8,9-tetrahydro-5H-imidazo[1,5-a][1,4]diazepine-1-carboxamide], for which, on rat CB2 receptor (rCB2), the “+/− RCB2” value was “+”. The EC50 in test [1] was more than 10000 nM.

For `CNC(=O)[C@@H](NC(=O)c1nc(-c2cc(Cl)ccc2F)n2c1CN(C)CCC2)C(C)(C)C` [Compound 361, (S)-3-(5-chloro-2-fluorophenyl)-N-(3,3-dimethyl-1-(methylamino)-1-oxobutan-2-yl)-8-methyl-6,7,8,9-tetrahydro-5H-imidazo[1,5-a][1,4]diazepine-1-carboxamide], on rat CB2 receptor (rCB2), the “+/− RCB2” value is “+”. Besides, in test [1], the “+/− HCB1” value is “+”.

With `CNC(=O)[C@@H](NC(=O)c1nc(/C=C/Cc2ccccc2)n2c1CN(C)CCC2)C(C)(C)C` [Compound 458, (S,E)-N-(3,3-dimethyl-1-(methylamino)-1-oxobutan-2-yl)-8-methyl-3-(3-phenylprop-1-enyl)-6,7,8,9-tetrahydro-5H-imidazo[1,5-a][1,4]diazepine-1-carboxamide], the “+/− RCB2” value on rat CB2 receptor (rCB2) is reported as “−”. Moreover, the “+/− HCB1” value in test [1] was “+”.
